As usually defined, the IC50 is the midpoint of a concentration-inhibition curve. Low values mean inhibition by little substance, high ones a need for much substance. Usually logD stands for lipophilicity at a set pH, counting ionised and neutral species. The low end stands for lower lipophilicity, the high end for higher lipophilicity.

IC50 and logD data for eleven compounds are collected here from ChEMBL document CHEMBL1137944, “Imidazole derivatives as new potent and selective 20-HETE synthase inhibitors” (Bioorg Med Chem Lett, 2004).

The target in one data set is Cytochrome P450 2C9 (Homo sapiens, UniProt P11712). The data set is described as follows: Inhibition of cytochrome P450 2C9.
Chain of Cytochrome P450 2C9 (P11712 whole entry): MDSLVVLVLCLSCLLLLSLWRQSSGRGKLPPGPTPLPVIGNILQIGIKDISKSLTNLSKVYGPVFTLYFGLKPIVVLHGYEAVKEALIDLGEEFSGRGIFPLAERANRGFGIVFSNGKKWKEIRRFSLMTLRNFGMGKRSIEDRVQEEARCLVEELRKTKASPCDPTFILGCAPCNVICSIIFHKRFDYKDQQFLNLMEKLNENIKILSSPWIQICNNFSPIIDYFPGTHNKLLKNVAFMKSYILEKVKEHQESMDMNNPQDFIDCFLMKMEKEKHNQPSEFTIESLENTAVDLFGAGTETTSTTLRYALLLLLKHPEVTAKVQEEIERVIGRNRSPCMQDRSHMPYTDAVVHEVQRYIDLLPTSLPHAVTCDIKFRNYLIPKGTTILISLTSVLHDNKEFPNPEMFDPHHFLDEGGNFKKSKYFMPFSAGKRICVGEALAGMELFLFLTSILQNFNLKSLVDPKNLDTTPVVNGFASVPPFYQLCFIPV
A further data set concerns the target Cytochrome P450 2C19 (Homo sapiens, UniProt P33261). As to the kind of experiment: Inhibition of cytochrome P450 2C19.
The next data set deals with Cytochrome P450 2D6 (Homo sapiens, UniProt P10635). The data set is described as follows: Inhibition of cytochrome P450 2D6.
Chain of Cytochrome P450 2D6 (P10635 whole entry): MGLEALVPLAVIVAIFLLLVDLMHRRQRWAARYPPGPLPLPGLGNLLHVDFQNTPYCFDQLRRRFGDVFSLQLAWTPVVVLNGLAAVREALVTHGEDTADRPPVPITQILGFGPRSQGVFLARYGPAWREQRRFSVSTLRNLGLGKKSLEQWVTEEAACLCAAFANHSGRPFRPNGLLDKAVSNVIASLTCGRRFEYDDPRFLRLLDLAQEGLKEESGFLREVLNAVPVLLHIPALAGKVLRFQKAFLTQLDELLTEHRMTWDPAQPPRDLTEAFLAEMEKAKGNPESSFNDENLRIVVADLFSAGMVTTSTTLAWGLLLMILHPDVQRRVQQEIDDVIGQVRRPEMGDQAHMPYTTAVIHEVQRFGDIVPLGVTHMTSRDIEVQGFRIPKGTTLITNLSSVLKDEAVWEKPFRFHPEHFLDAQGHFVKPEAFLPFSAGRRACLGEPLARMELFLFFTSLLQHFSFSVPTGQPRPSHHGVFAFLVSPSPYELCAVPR
In the next data set the target is T1, Cytochrome P450 1A2 (Homo sapiens, UniProt P05177).
T1 sequence (P05177 whole entry): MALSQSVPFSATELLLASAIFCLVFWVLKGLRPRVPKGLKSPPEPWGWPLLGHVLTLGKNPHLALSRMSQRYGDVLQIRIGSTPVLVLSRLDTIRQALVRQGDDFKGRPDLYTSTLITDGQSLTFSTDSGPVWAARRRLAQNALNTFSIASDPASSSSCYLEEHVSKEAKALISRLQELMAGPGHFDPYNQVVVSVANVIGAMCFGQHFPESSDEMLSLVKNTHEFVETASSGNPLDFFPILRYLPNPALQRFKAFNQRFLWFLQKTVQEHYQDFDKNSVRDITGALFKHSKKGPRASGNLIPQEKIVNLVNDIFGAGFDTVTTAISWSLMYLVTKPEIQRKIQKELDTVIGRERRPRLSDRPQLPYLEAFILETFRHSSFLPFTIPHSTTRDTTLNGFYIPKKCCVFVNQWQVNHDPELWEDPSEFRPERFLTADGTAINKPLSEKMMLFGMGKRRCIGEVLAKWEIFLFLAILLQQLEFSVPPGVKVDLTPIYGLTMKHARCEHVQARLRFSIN
The data set is described as follows: Inhibition of cytochrome P450 1A2.

Data set [1] is described as follows: Distribution coefficient of compound was evaluated at pH 6.8. The conditions noted are these: octanol/water.
Another data set concerns the target Cytochrome P450 3A4 (Homo sapiens, UniProt P08684). The data set is described as follows: Inhibition of cytochrome P450 3A4.
Data set [2] in a line: Inhibition of 20-HETE synthesis in human renal microsomes. Set-up: species or system Microsome.

Structures are written as SMILES.

Chain of Cytochrome P450 2C19 (P33261 whole entry): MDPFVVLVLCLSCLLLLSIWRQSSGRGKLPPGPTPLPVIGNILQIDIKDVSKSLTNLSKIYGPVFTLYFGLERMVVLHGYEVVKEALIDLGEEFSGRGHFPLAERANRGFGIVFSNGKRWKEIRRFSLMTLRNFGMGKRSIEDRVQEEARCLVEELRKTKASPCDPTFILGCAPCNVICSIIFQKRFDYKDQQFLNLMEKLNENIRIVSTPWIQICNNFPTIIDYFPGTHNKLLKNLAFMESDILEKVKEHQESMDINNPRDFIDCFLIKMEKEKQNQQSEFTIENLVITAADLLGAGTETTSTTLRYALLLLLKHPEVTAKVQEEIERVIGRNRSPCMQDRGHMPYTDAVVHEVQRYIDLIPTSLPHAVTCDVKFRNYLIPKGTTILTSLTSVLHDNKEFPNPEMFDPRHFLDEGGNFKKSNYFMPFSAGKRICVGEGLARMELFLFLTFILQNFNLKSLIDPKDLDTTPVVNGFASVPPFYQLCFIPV
Chain of Cytochrome P450 3A4 (P08684 whole entry): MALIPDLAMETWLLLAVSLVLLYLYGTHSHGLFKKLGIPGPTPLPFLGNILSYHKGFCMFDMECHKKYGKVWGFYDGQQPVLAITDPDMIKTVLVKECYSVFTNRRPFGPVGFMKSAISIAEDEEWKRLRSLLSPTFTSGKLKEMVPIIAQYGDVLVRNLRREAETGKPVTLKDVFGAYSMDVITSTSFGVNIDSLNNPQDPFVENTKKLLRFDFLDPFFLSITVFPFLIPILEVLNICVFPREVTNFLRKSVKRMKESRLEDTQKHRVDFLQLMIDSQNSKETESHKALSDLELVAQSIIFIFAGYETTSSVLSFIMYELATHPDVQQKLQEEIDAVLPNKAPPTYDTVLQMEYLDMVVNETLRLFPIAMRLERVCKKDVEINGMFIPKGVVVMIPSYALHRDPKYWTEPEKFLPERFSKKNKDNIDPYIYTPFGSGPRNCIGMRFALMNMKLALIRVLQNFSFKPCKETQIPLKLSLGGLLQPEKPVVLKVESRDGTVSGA

As to `c1ccc(CCCOc2ccc(-n3ccnc3)cc2)nc1`, the IC50 against Cytochrome P450 2C9 is 0.129 µM; on Cytochrome P450 2C19, less than 0.046 µM; on Cytochrome P450 2D6, 0.62 µM; against Cytochrome P450 1A2 it was less than 0.046 µM; at Cytochrome P450 3A4 it was 0.252 µM; in data set [2], 0.0021 µM. Moreover, in data set [1], the logD is 2.84.

For the compound `c1cncc(CCCOc2ccc(-n3ccnc3)cc2)c1`, the IC50 was 0.185 µM against Cytochrome P450 2C9; less than 0.046 µM at Cytochrome P450 2C19; 1.3 µM against Cytochrome P450 2D6; less than 0.046 µM against Cytochrome P450 1A2; 0.417 µM against Cytochrome P450 3A4; 0.0011 µM in data set [2]. In data set [1], this compound gave a log distribution coefficient (logD) of 2.85.

For the compound `c1cc(CCCOc2ccc(-n3ccnc3)cc2)ccn1`, the IC50 on Cytochrome P450 2C9 was 0.101 µM; on Cytochrome P450 2C19 it was less than 0.046 µM; against Cytochrome P450 2D6, 1.04 µM; against Cytochrome P450 1A2, less than 0.046 µM; on Cytochrome P450 3A4, 0.344 µM; in data set [2] it was 0.0011 µM. In addition, the logD in data set [1] was found to be 2.81.

Take `CN(C)CCCCCCOc1ccc(-n2ccnc2)cc1`: the IC50 on Cytochrome P450 2D6 is 0.41 µM; against Cytochrome P450 1A2 it was 0.8 µM; against Cytochrome P450 3A4, 4.46 µM; in data set [2] it was 0.0022 µM. In addition, the logD in data set [1] worked out at 0.51.

Take `c1ccc(COc2ccc(-n3ccnc3)cc2)nc1`: the half-maximal inhibitory concentration (IC50) against Cytochrome P450 2C9 was 0.13 µM; at Cytochrome P450 2C19, less than 0.046 µM; against Cytochrome P450 2D6, 1.04 µM; against Cytochrome P450 1A2, 0.12 µM; against Cytochrome P450 3A4, 0.63 µM; in data set [2], 0.0045 µM. This compound came in with a logD in data set [1] of 1.99.

In data set [2], `CCCCCCOc1ccc(-n2ccnc2)cn1` had an IC50 of 0.0077 µM.

`c1cn(-c2ccc(OCCN3CCOCC3)cc2)cn1`: the IC50 came to 1.81 µM against Cytochrome P450 2C9; 0.091 µM against Cytochrome P450 2C19; 0.399 µM at Cytochrome P450 2D6; 1.48 µM against Cytochrome P450 1A2; 5.67 µM at Cytochrome P450 3A4; 0.0086 µM in data set [2]. The compound further yielded a logD in data set [1] of 0.91.

With `CN(C)CCOc1ccc(-n2ccnc2)cc1`, the IC50 on Cytochrome P450 2D6 is 1.05 µM; at Cytochrome P450 1A2, 15 µM; against Cytochrome P450 3A4 it was more than 100 µM; in data set [2], 0.387 µM. Also, the logD in data set [1] was -0.08.

Turning to `CCCCc1ccc(/N=C/NO)c(C)c1`, the IC50 in data set [2] came out at 0.0089 µM.

In the case of `CN(C)CCCOc1ccc(-n2ccnc2)cc1`, the IC50 against Cytochrome P450 2D6 came to 0.4 µM; against Cytochrome P450 1A2, 3.4 µM; on Cytochrome P450 3A4, 39 µM; in data set [2], 0.051 µM. Also, in data set [1], the logD was -0.41.

With `CCOC(=O)N1CCN(CCOc2ccc(-n3ccnc3)cc2)CC1`, the IC50 is 1.44 µM against Cytochrome P450 2C9; 0.469 µM on Cytochrome P450 2C19; 3.2 µM at Cytochrome P450 2D6; 2.24 µM against Cytochrome P450 1A2; more than 100 µM against Cytochrome P450 3A4; 0.016 µM in data set [2]. The same compound registered a logD in data set [1] of 2.27.
